Data taken from patent US10947296B2, “Fusion protein Slit2D2(C386S)-HSA and use thereof in treatment of fibrotic diseases” (SUZHOU THINKING POWER BIOTECHNOLOGY CO., LTD., priority 2016, dated 2021).

Tests used:
pulmonary fibrosis model = assay: Efficacy on bleomycin-induced pulmonary fibrosis model; type: in vivo; set-up: body weight of the animals (Mean ± SEM) / Weight of the left lung (Mean ± SEM) / Volume of the left lung (Mean ± SEM): unit not given here; conditions: for body weight of the animals (Mean ± SEM): PFD 50mpk BID PO
Method: Animals were anesthetized by inhaling isoflurane. After confirmation of anesthesia, the animals were sterilized, then the neck skin was cut, the muscles were bluntly separated to expose the trachea, and bleomycin (dosage: 3 mg/kg, volume: 1.0 mL/kg) was directly injected between the tracheal rings. After the operation, the animals were placed in a 37° C. electric blanket to keep warm until the animals were completely awakened. After confirming that they were able to eat and drink freely, the animals were returned to the cage for normal feeding.
In this experiment, there were four groups, i.e., model group (experimental group-1, […]), PFD group (experimental group-2, n=6), Slit2D2(C386S)-HSA-1 mg/kg (experimental group-3, n=6), and Slit2D2(C386S)-HSA-5 mg/kg (experimental group-4, n=6).
In this experiment, the positive control drug (PFD) was given to rats by gavage twice a day, which was started on the day of modeling, and administered continuously for 14 days. The test compound (Slit2D2(C386S)-HSA) was given intravenously once every other day, which was started on the day of modeling, and a total of seven doses were administered (as shown in table 6).
Physiological observation of the experimental animals: changes in body weight of the animals were measured (body weight was measured once a day before administration); and the death rate of animals during the test period was monitored.
Animals were euthanized 24 hours after the last administration on the 14th day of modeling. After confirming the death of the animals, the left lung was fixed by intrapulmonary infusion of formalin, and the volume and weight of the left lung after perfusion were measured for relevant examination of the pulmonary pathology.
General pathological examination: After the perfusion with an equal amount of formalin in the left lung, the wet weight of left lung after perfusion was weighed/recorded with a micro-balance; and the volume of left lung after perfusion was measured and recorded using a micro-measuring cup.
Pathological examination of lung tissue: The whole lung was dehydrated. Lung paraffin sections were made with paraffin blocks. […] HE staining and Masson Trichrome staining were performed according to pathological staining SOP, and whole section scanning was performed using a Digital Pathscope slice scanner. Pathological analysis and scoring of changes in damage and inflammation of terminal bronchioles and accompanying small pulmonary artery at the periphery of the lesions (as shown in Tables 7 and 8 and FIG. 7) were performed using the HE-stained sections. Lesion area calculation, lesion pathology analysis and scoring were performed with the Masson Trichrome-stained sections (as shown in Table 9 and FIG. 8).
The mean±sd or mean±sem was calculated using the graphpad prism software, and the significant difference test was performed using t-test, one-way ANOVA and two-way ANOVA test. A significant difference between the two groups was considered at p<0.05.

Robo1 protein = target: T1, Robo1 protein (Homo sapiens, UniProt Q9Y6N7); assay: Affinity of the fusion protein to receptor Robo1 determined by SPR; type: binding; conditions: Robo1 bound to CM5 chip
T1 construct: purchased ORIGEN TP327713
T1 sequence (Q9Y6N7 26-1651): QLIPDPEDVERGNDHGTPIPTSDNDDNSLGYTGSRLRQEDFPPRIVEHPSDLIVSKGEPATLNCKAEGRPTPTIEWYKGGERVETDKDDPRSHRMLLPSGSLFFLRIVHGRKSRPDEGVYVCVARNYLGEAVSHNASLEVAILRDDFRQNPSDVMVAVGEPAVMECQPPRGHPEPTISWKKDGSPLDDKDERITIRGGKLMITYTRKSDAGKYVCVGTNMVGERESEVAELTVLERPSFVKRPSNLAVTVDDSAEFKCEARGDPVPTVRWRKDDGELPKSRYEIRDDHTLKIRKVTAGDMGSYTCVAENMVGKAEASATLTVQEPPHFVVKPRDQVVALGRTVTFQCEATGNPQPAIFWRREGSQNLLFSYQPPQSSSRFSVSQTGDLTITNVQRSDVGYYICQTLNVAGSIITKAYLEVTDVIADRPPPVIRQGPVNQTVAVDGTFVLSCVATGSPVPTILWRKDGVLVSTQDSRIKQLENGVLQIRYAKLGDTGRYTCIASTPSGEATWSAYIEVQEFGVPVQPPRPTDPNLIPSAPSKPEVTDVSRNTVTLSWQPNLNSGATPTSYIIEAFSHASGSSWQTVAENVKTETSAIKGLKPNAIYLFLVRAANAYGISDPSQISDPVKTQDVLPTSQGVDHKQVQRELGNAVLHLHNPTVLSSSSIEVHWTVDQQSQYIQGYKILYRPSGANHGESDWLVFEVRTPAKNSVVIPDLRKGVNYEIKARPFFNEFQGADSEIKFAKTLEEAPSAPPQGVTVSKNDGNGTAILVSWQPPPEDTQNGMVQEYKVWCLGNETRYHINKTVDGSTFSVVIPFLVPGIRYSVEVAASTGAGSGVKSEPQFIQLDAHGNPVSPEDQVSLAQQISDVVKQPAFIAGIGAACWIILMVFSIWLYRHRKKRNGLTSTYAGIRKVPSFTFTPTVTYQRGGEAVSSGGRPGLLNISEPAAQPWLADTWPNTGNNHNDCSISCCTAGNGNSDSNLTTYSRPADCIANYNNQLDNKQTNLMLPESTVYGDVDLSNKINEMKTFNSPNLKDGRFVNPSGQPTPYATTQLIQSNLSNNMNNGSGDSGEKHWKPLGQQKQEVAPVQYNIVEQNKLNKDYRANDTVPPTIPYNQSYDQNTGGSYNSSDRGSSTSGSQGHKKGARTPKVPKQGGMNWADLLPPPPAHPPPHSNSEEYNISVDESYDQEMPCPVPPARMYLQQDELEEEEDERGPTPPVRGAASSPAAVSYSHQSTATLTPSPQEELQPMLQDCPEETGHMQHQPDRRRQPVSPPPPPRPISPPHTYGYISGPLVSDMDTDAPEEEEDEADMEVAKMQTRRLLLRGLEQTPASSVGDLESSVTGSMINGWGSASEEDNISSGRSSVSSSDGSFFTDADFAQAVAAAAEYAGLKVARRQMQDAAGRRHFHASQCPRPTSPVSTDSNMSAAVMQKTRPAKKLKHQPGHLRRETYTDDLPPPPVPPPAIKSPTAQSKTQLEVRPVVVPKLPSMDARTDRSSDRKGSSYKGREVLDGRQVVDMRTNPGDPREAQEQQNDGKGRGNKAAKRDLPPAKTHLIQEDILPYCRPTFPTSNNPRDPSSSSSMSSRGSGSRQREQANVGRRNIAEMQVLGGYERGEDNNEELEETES
Method: The affinity constant between the protein and Robo1 protein was detected by SPR (Surface Plasmon resonance BIAcore 200) method. The Robo1 protein (ORIGEN, Art. No.: TP327713) was bound to a CM5 chip, and the interaction between the fusion protein Slit2D2(C386S)-HSA (prepared in Example 1), Slit2D2-HSA (as disclosed in Patent Application PCT/CN2015/092079), and the receptor protein Robo1 were analyzed. Kinetic measurements were performed according to the method referred by Canziani et al. (2004, Anal. Biochem. 325: 301-307). Furthermore, the affinity of the Slit2N protein (Slit2N is a protein having a molecular weight of about 120 kDa at the N-terminus of the Slit2 protein) to Robo1 protein was also determined by the same method.

Cc1ccc(=O)n(-c2ccccc2)c1 [PFD, Pirfenidone, reference compound]
body weight of the animals (Mean ± SEM) (pulmonary fibrosis model; Day 1): 279.4 ± 2.3
body weight of the animals (Mean ± SEM) (pulmonary fibrosis model; Day 3): 261.8 ± 3.9
body weight of the animals (Mean ± SEM) (pulmonary fibrosis model; Day 5): 265.0 ± 6.4
body weight of the animals (Mean ± SEM) (pulmonary fibrosis model; Day 7): 282.9 ± 7.4
body weight of the animals (Mean ± SEM) (pulmonary fibrosis model; Day 9): 298.4 ± 8.0
body weight of the animals (Mean ± SEM) (pulmonary fibrosis model; Day 11): 312.6 ± 8.8
body weight of the animals (Mean ± SEM) (pulmonary fibrosis model; Day 13): 321.7 ± 8.3
inhibition on the progression of pulmonary fibrosis (pulmonary fibrosis model; continuous administration for 14 days, 50 mg/kg PO BID): significant inhibition

B1: Slit2N: Protein having a molecular weight of about 120 kDa at the N-terminus of the Slit2 protein (protein)
chain: QCSCSGSTVDCHGLALRSVPRNIPRNTERLDLNGNNITRITKTDFAGLRHLRVLQLMENKISTIERGAFQDLKELERLRLNRNHLQLFPELLFLGTAKLYRLDLSENQIQAIPRKAFRGAVDIKNLQLDYNQISCIEDGAFRALRDLEVLTLNNNNITRLSVASFNHMPKLRTFRLHSNNLYCDCHLAWLSDWLRQRPRVGLYTQCMGPSHLRGHNVAEVQKREFVCSGHQSFMAPSCSVLHCPAACTCSNNIVDCRGKGLTEIPTNLPETITEIRLEQNTIKVIPPGAFSPYKKLRRIDLSNNQISELAPDAFQGLRSLNSLVLYGNKITELPKSLFEGLFSLQLLLLNANKINCLRVDAFQDLHNLNLLSLYDNKLQTIAKGTFSPLRAIQTMHLAQNPFICDCHLKWLADYLHTNPIETSGARCTSPRRLANKRIGQIKSKKFRCSAKEQYFIPGTEDYRSKLSGDCFADLACPEKCRCEGTTVDCSNQKLNKIPEHIPQYTAELRLNNNEFTVLEATGIFKKLPQLRKINFSNNKITDIEEGAFEGASGVNEILLTSNRLENVQHKMFKGLESLKTLMLRSNRITCVGNDSFIGLSSVRLLSLYDNQITTVAPGAFDTLHSLSTLNLLANPFNCNCYLAWLGEWLRKKRIVTGNPRCQKPYFLKEIPIQDVAIQDFTCDDGNDDNSCSPLSRCPTECTCLDTVVRCSNKGLKVLPKGIPRDVTELYLDGNQFTLVPKELSNYKHLTLIDLSNNRISTLSNQSFSNMTQLLTLILSYNRLRCIPPRTFDGLKSLRLLSLHGNDISVVPEGAFNDLSALSHLAIGANPLYCDCNMQWLSDWVKSEYKEPGIARCAGPGEMADKLLLTTPSKKFTCQGPVDVNILAKCNPCLSNPCKNDGTCNSDPVDFYRCTCPYGFKGQDCDVPIHACISNPCKHGGTCHLKEGEEDGFWCICADGFEGENCEVNVDDCEDNDCENNSTCVDGINNYTCLCPPEYTGELCEEKLDFCAQDLNPCQHDSKCILTPKGFKCDCTPGYVGEHCDIDFDDCQDNKCKNGAHCTDAVNGYTCICPEGYSGLFCEFSPPMVLPR
Ka (Robo1 protein): 743600 M⁻¹ s⁻¹
